The values below come from patent publication US8183262B2, “Pyridine derivatives as mGluR2 antagonists” (Hoffmann-La Roche Inc., priority 2007, dated 2012).

Each structure is given as a SMILES string.

As usually defined, the melting point is the temperature of the solid-liquid transition.

In turn, `Nc1ccc(-c2cn(-c3nc(-c4ccc(C(F)(F)F)cc4)cc(C(F)F)n3)cn2)cn1` [Example 32, 5-{1-[4-Difluoromethyl-6-(4-trifluoromethyl-phenyl)-pyrimidin-2-yl]-1H-imidazol-4-yl}-pyridin-2-ylamine] gave a melting point of 253.5 °C.
In the case of `Nc1ccc(-c2noc(-c3nc(-c4ccc(C(F)(F)F)cc4)cc(C(F)F)n3)n2)cn1` [Example 36, 5-{5-[4-Difluoromethyl-6-(4-trifluoromethyl-phenyl)-pyrimidin-2-yl]-[1,2,4]oxadiazol-3-yl}-pyridin-2-ylamine] it was 219 °C; in that of `FC(F)(F)c1ccc(-c2cc(C(F)(F)F)nc(-c3cccnc3)n2)cc1` [Example 37, 2-Pyridin-3-yl-4-trifluoromethyl-6-(4-trifluoromethyl-phenyl)-pyrimidine], 134 °C.
Turning to `FC(F)c1cc(-c2ccc(C(F)(F)F)cc2)nc(-c2ccncc2)n1` [Example 38, 4-Difluoromethyl-2-pyridin-4-yl-6-(4-trifluoromethyl-phenyl)-pyrimidine], the melting point was found to be 132.5 °C.
The compound `NS(=O)(=O)c1cccc(-c2noc(-c3nc(-c4ccc(C(F)(F)F)cc4)cc(C(F)F)n3)n2)c1` [Example 40, 3-{5-[4-Difluoromethyl-6-(4-trifluoromethyl-phenyl)-pyrimidin-2-yl]-[1,2,4]oxadiazol-3-yl}-benzenesulfonamide] had a melting point of 217.5 °C.
In the case of `Nc1ccc(-c2cccc(-c3nc(-c4ccc(C(F)(F)F)cc4)cc(C(F)F)n3)c2)cn1` [Example 41, 5-{3-[4-Difluoromethyl-6-(4-trifluoromethyl-phenyl)-pyrimidin-2-yl]-phenyl}-pyridin-2-ylamine] it was 191 °C; in that of `Cc1cc(-c2ccc(Cl)cc2)nc(-n2cnc(-c3ccc(N)nc3)c2)n1` [Example 43, 5-{1-[4-(4-Chloro-phenyl)-6-methyl-pyrimidin-2-yl]-1H-imidazol-4-yl}-pyridin-2-ylamine], 206 to 208 °C.
Under `Cc1cc(-c2ccc(Cl)cc2)nc(-n2cnc(-c3cccnc3)c2)n1` [Example 44, 4-(4-Chloro-phenyl)-6-methyl-2-(4-pyridin-3-yl-imidazol-1-yl)-pyrimidine] stands 179 to 181 °C.
Take `Cc1cc(-c2ccc(Cl)cc2)nc(-n2cnc(-c3cnc(N)nc3)c2)n1` [Example 45, 5-{1-[4-(4-Chloro-phenyl)-6-methyl-pyrimidin-2-yl]-1H-imidazol-4-yl}-pyrimidin-2-ylamine]: the melting point is 264 to 266 °C.
On to `Cc1cc(-c2ccc(C(F)(F)F)cc2)nc(-n2cnc(-c3ccc(N)nc3)c2)n1` [Example 46, 5-{1-[4-Methyl-6-(4-trifluoromethyl-phenyl)-pyrimidin-2-yl]-1H-imidazol-4-yl}-pyridin-2-ylamine], for which the melting point fell in the range of 230 to 232 °C.
In the case of `Cc1cc(-c2ccc(C(F)(F)F)cc2)nc(-n2cnc(-c3cnc(N)nc3)c2)n1` [Example 47, 5-{1-[4-Methyl-6-(4-trifluoromethyl-phenyl)-pyrimidin-2-yl]-1H-imidazol-4-yl}-pyrimidin-2-ylamine] it was 267 to 269 °C; in that of `Cc1cc(-c2ccc(C(F)(F)F)cc2)nc(-n2cnc(-c3cccnc3)c2)n1` [Example 48, 4-Methyl-2-(4-pyridin-3-yl-imidazol-1-yl)-6-(4-trifluoromethyl-phenyl)-pyrimidine], 208 to 210 °C; in that of `Nc1ccc(-c2cn(-c3nc(-c4ccc(Cl)cc4)cc(C4CC4)n3)cn2)cn1` [Example 49, 5-{1-[4-(4-Chloro-phenyl)-6-cyclopropyl-pyrimidin-2-yl]-1H-imidazol-4-yl}-pyridin-2-ylamine], 220 to 222 °C.
Take `Clc1ccc(-c2cc(C3CC3)nc(-n3cnc(-c4cccnc4)c3)n2)cc1` [Example 50, 4-(4-Chloro-phenyl)-6-cyclopropyl-2-(4-pyridin-3-yl-imidazol-1-yl)-pyrimidine]: the melting point lay in the range of 180 to 182 °C.
In the case of `Nc1ncc(-c2cn(-c3nc(-c4ccc(Cl)cc4)cc(C4CC4)n3)cn2)cn1` [Example 51, 5-{1-[4-(4-Chloro-phenyl)-6-cyclopropyl-pyrimidin-2-yl]-1H-imidazol-4-yl}-pyrimidin-2-ylamine] it was 238 to 240 °C.
`Nc1ccc(-c2cn(-c3nccc(-c4ccc(Cl)cc4)n3)cn2)cn1` [Example 52, 5-{1-[4-(4-Chloro-phenyl)-pyrimidin-2-yl]-1H-imidazol-4-yl}-pyridin-2-ylamine] gave a melting point of 188 to 190 °C.
Under `Nc1ccc(-c2cn(-c3nc(-c4cccc(C(F)(F)F)c4)cc(C(F)(F)F)n3)cn2)cn1` [Example 53, 5-{1-[4-Trifluoromethyl-6-(3-trifluoromethyl-phenyl)-pyrimidin-2-yl]-1H-imidazol-4-yl}-pyridin-2-ylamine] stands 262 °C; under `Cc1cc(-c2ccc(C(F)(F)F)cc2)cc(-n2cnc(-c3ccc(N)nc3)c2)n1` [Example 58, 5-{1-[6-Methyl-4-(4-trifluoromethyl-phenyl)-pyridin-2-yl]-1H-imidazol-4-yl}-pyridin-2-ylamine], 224 to 226 °C; under `Nc1ccc(-c2cccc(-c3cc(-c4ccc(C(F)(F)F)cc4)cc(C4CC4)n3)c2)cn1` [Example 64, 5-{3-[6-Cyclopropyl-4-(4-trifluoromethyl-phenyl)-pyridin-2-yl]-phenyl}-pyridin-2-ylamine], 130 to 135 °C.
Under `Nc1ncc(-c2cn(-c3cc(C(F)(F)F)cc(-c4ccc(C(F)(F)F)cc4)n3)cn2)cn1` [Example 66, 5-{1-[4-Trifluoromethyl-6-(4-trifluoromethyl-phenyl)-pyridin-2-yl]-1H-imidazol-4-yl}-pyrimidin-2-ylamine] stands above 250 °C.
In the case of `Cc1cc(-c2ccc(C(F)(F)F)cc2)cc(-c2cncc(-c3ccc(N)nc3)c2)n1` [Example 67, 6-Methyl-4-(4-trifluoromethyl-phenyl)-[2,3′;5′,3″]terpyridin-6″-ylamine] it was 161 to 177 °C.
In the case of `Cc1cc(-c2ccc(C(F)(F)F)cc2)cc(-c2cncc(-c3cnc(N)nc3)c2)n1` [Example 68, 5-[6-Methyl-4-(4-trifluoromethyl-phenyl)-[2,3′]bipyridinyl-5′-yl]-pyrimidin-2-ylamine], the melting point is 248 to 252 °C.
Compound `Nc1ccc(-c2cncc(-c3cc(-c4ccc(C(F)(F)F)cc4)cc(C4CC4)n3)c2)cn1` [Example 69, 6-Cyclopropyl-4-(4-trifluoromethyl-phenyl)-[2,3′;5′,3″]terpyridin-6″-ylamine] yielded a melting point of 207 to 209 °C.
Take `Cc1cc(-c2ccc(C(F)(F)F)cc2)cc(-c2ccnc(-c3cnc(N)nc3)c2)n1` [Example 76, 5-[6-Methyl-4-(4-trifluoromethyl-phenyl)-[2,4′]bipyridinyl-2′-yl]-pyrimidin-2-ylamine]: the melting point is above 245 °C.
For `Nc1ccc(-c2cc(-c3cc(-c4ccc(C(F)(F)F)cc4)cc(C4CC4)n3)ccn2)cn1` [Example 77, 6-Cyclopropyl-4-(4-trifluoromethyl-phenyl)-[2,4′;2′,3″]terpyridin-6″-ylamine], the melting point fell in the range of 172 to 174 °C.
`Nc1ncc(-c2cc(-c3cc(-c4ccc(C(F)(F)F)cc4)cc(C4CC4)n3)ccn2)cn1` [Example 78, 5-[6-Cyclopropyl-4-(4-trifluoromethyl-phenyl)-[2,4′]bipyridinyl-2′-yl]-pyrimidin-2-ylamine] gave a melting point of 242 to 245 °C.
For `Cc1cc(-c2ccc(C(F)(F)F)cc2)cc(-c2cccc(-c3ccncc3)c2)n1` [Example 79, 2-Methyl-6-(3-pyridin-4-yl-phenyl)-4-(4-trifluoromethyl-phenyl)-pyridine], the melting point was in the range of 143 to 147 °C.
In the case of `Cc1cc(-c2ccc(Cl)cc2)cc(-n2cnc(-c3ccc(N)nc3)c2)n1` [Example 80, 5-{1-[4-(4-Chloro-phenyl)-6-methyl-pyridin-2-yl]-1H-imidazol-4-yl}-pyridin-2-ylamine] it was 230 to 233 °C; in that of `Cc1cc(-c2ccc(Cl)cc2)cc(-c2cncc(-c3ccc(N)nc3)c2)n1` [Example 81, 4-(4-Chloro-phenyl)-6-methyl-[2,3′;5′,3″]terpyridin-6″-ylamine], 188 to 192 °C; in that of `Cc1cc(-c2ccc(Cl)cc2)cc(-c2cccc(-c3cnc(N)nc3)c2)n1` [Example 82, 5-{3-[4-(4-Chloro-phenyl)-6-methyl-pyridin-2-yl]-phenyl}-pyrimidin-2-ylamine], 197 to 199 °C.
In the case of `NS(=O)(=O)c1cccc(-c2cccc(-c3cc(C(F)(F)F)cc(-c4ccc(C(F)(F)F)cc4)n3)c2)c1` [Example 83, 3′-[4-Trifluoromethyl-6-(4-trifluoromethyl-phenyl)-pyridin-2-yl]-biphenyl-3-sulfonic acid amide] it was 176 to 179 °C; in that of `FC(F)(F)c1cc(-c2ccc(Cl)cc2)nc(-c2ccnc(-c3cccnc3)c2)n1` [Example 84, 4-[4-(4-Chloro-phenyl)-6-trifluoromethyl-pyrimidin-2-yl]-[2,3]bipyridinyl], 226 °C.
In the case of `FC(F)(F)c1ccc(-c2cc(C(F)(F)F)nc(-c3ccnc(-c4cccnc4)c3)n2)cc1` [Example 85, 4-[4-Trifluoromethyl-6-(4-trifluoromethyl-phenyl)-pyrimidin-2-yl]-[2,3′]bipyridinyl] it was 247 °C; in that of `FC(F)(F)c1cc(-c2ccc(Cl)cc2)nc(-c2ccnc(-c3ccncc3)c2)n1` [Example 86, 4-[4-(4-Chloro-phenyl)-6-trifluoromethyl-pyrimidin-2-yl]-[2,4′]bipyridinyl], 193 °C; in that of `CCOc1cc(-c2cc(C(F)(F)F)nc(-n3cnc(-c4ccc(N)nc4)c3)n2)ccc1C(F)(F)F` [Example 87, 5-{1-[4-(3-Ethoxy-4-trifluoromethyl-phenyl)-6-trifluoromethyl-pyrimidin-2-yl]-1H-imidazol-4-yl}-pyridin-2-ylamine], 266.5 °C.
On to `Nc1ccc(-c2cc(-c3nc(-c4ccc(C(F)(F)F)cc4)cc(C(F)F)n3)ccn2)cn1` [Example 88, 4-[4-Difluoromethyl-6-(4-trifluoromethyl-phenyl)-pyrimidin-2-yl]-[2,3′]bipyridinyl-6′-ylamine], for which the melting point was determined as 210 °C.
